Laboratory results reported in patent US10457672B2, “γ-diketones as Wnt/β-catenin signaling pathway activators” (Samumed, LLC, priority 2013, dated 2019).

System: Wnt/β-catenin signaling pathway (Wnt-responsive SP5 promoter luciferase reporter in SW480 cells)
Test: Wnt reporter (SP5 promoter-firefly luciferase) activation assay in SW480 cells
Format: cell-based
Conditions: Homo sapiens; SW480 colon cancer cells with SP5 promoter luciferase reporter; 24 h after compound addition; normalized to DMSO; concentration at half maximal activation
Description: Compounds that enhance the Wnt activity, or Activators, were assayed as follows. Reporter cell lines were generated by stably transducing cells of colon cancer cell lines (with a lentiviral construct that included a Wnt-responsive promoter driving expression of the firefly luciferase gene).
Lentiviral constructs were made in which the SP5 promoter, a promoter having eight TCF/LEF binding sites derived from the SP5 promoter, was linked upstream of the firefly luciferase gene. The lentiviral constructs also included a hygromycin resistance gene as a selectable marker. The SP5 promoter construct was used to transduce SW480 cells, a colon cancer cell line having a mutated APC gene that generates a truncated APC protein, leading to de-regulated accumulation of β-catenin.
Cultured SW480 cells bearing a reporter construct were distributed at approximately 10,000 cells per well into 384- or 96-well multiwell plates. Compounds from a small molecule compound library were then added to the wells in half-log dilutions using a maximum concentration of three or ten micromolar. A series of control wells for each cell type received only buffer and compound solvent DMSO. Twenty-four hours after the addition of compound, reporter activity for luciferase was assayed, for example, by addition of the BrightGlo luminescence reagent (Promega) and the Victor3 plate reader (Perkin Elmer). Readings were normalized to DMSO only treated cells, and any activities above DMSO were considered activation. Compounds were considered activators if reporter activities were 2× fold or greater than DMSO. EC50 is the concentration at half maximal activation.

Row | Structure (SMILES) | EC50
1 | O=C(CCC(=O)c1ccc2sccc2c1)c1ccccc1 [Compound 313, 1-(Benzo[b]thiophen-5-yl)-4-phenylbutane-1,4-dione] | 44 nM
2 | O=C(CCC(=O)c1c[nH]c2ccccc12)c1ccccc1C(F)(F)F [Compound 314, 1-(1H-Indol-3-yl)-4-(2-(trifluoromethyl)phenyl)butane-1,4-dione] | 16 nM
3 | O=C(CCC(=O)c1c[nH]c2ccccc12)c1ccc(C(F)(F)F)cc1 [Compound 316, 1-(1H-Indol-3-yl)-4-(4-(trifluoromethyl)phenyl)butane-1,4-dione] | > 10000 nM
4 | O=C(CCC(=O)c1c[nH]c2ccccc12)c1ccccc1F [Compound 317, 1-(2-Fluorophenyl)-4-(1H-indol-3-yl)butane-1,4-dione] | > 10000 nM
5 | COc1ccccc1C(=O)CCC(=O)c1c[nH]c2ccccc12 [Compound 319, 1-(1H-Indol-3-yl)-4-(2-methoxyphenyl)butane-1,4-dione] | 279 nM
6 | COc1cccc(C(=O)CCC(=O)c2c[nH]c3ccccc23)c1 [Compound 320, 1-(1H-Indol-3-yl)-4-(3-methoxyphenyl)butane-1,4-dione] | > 10000 nM
7 | O=C(CCC(=O)c1c[nH]c2ccccc12)c1ccccc1 [Compound 325, 1-(1H-Indol-3-yl)-4-phenylbutane-1,4-dione] | 63 nM
8 | O=C(CCC(=O)c1n[nH]c2ccccc12)c1ccccc1C(F)(F)F [Compound 326, 1-(1H-Indazol-3-yl)-4-(2-(trifluoromethyl)phenyl)butane-1,4-dione] | 117 nM
9 | O=C(CCC(=O)c1n[nH]c2ccccc12)c1ccccc1F [Compound 329, 1-(2-Fluorophenyl)-4-(1H-indazol-3-yl)butane-1,4-dione] | 89 nM
10 | COc1ccccc1C(=O)CCC(=O)c1n[nH]c2ccccc12 [Compound 332, 1-(1H-Indazol-3-yl)-4-(2-methoxyphenyl)butane-1,4-dione] | 680 nM
11 | COc1ccc(C(=O)CCC(=O)c2n[nH]c3ccccc23)cc1 [Compound 334, 1-(1H-Indazol-3-yl)-4-(4-methoxyphenyl)butane-1,4-dione] | > 10000 nM
12 | O=C(CCC(=O)c1n[nH]c2ccccc12)c1ccccc1 [Compound 338, 1-(1H-Indazol-3-yl)-4-phenylbutane-1,4-dione] | 64 nM
13 | O=C(CCC(=O)c1ncccn1)c1ccc2c(c1)OCCO2 [Compound 339, 1-(2,3-Dihydrobenzo[b][1,4]dioxin-6-yl)-4-(pyrimidin-2-yl)butane-1,4-dione] | 9 nM
14 | O=C(CCC(=O)c1ccncn1)c1ccc2c(c1)OCCO2 [Compound 340, 1-(2,3-Dihydrobenzo[b][1,4]dioxin-6-yl)-4-(pyrimidin-4-yl)butane-1,4-dione] | 209 nM
15 | O=C(CCC(=O)c1cccnn1)c1ccc2c(c1)OCCO2 [Compound 341, 1-(2,3-Dihydrobenzo[b][1,4]dioxin-6-yl)-4-(pyridazin-3-yl)butane-1,4-dione] | 95 nM
16 | Cc1ccccc1C(=O)CCC(=O)c1ccc2c(c1)OCCO2 [Compound 342, 1-(2,3-Dihydrobenzo[b][1,4]dioxin-6-yl)-4-(o-tolyl)butane-1,4-dione] | 9 nM
17 | Cc1cccc(C(=O)CCC(=O)c2ccc3c(c2)OCCO3)c1 [Compound 343, 1-(2,3-Dihydrobenzo[b][1,4]dioxin-6-yl)-4-(m-tolyl)butane-1,4-dione] | 351 nM
18 | Cc1ccc(C(=O)CCC(=O)c2ccc3c(c2)OCCO3)cc1 [Compound 344, 1-(2,3-Dihydrobenzo[b][1,4]dioxin-6-yl)-4-(p-tolyl)butane-1,4-dione] | 307 nM
19 | O=C(CCC(=O)c1ccc2c(c1)OCCO2)c1cncnc1 [Compound 345, 1-(2,3-Dihydrobenzo[b][1,4]dioxin-6-yl)-4-(pyrimidin-5-yl)butane-1,4-dione] | > 10000 nM
20 | O=C(CCC(=O)c1ccco1)c1ccc2c(c1)OCCO2 [Compound 346, 1-(2,3-Dihydrobenzo[b][1,4]dioxin-6-yl)-4-(furan-2-yl)butane-1,4-dione] | 24 nM
21 | Cc1ccccc1C(=O)CCC(=O)c1ccc2c(c1)CCCO2 [Compound 358, 1-(Chroman-6-yl)-4-(o-tolyl)butane-1,4-dione] | 14 nM
22 | O=C(CCC(=O)c1ncccn1)c1ccc2c(c1)CCCO2 [Compound 362, 1-(Chroman-6-yl)-4-(pyrimidin-2-yl)butane-1,4-dione] | 188 nM
23 | O=C(CCC(=O)c1cccs1)c1ccc2c(c1)CCCO2 [Compound 364, 1-(Chroman-6-yl)-4-(thiophen-2-yl)butane-1,4-dione] | 13 nM
24 | O=C(CCC(=O)c1ccco1)c1ccc2c(c1)CCCO2 [Compound 365, 1-(Chroman-6-yl)-4-(furan-2-yl)butane-1,4-dione] | 33 nM

Row | Structure (SMILES) | EC50
25 | Cc1ccccc1C(=O)CCC(=O)c1ccc2c(c1)OCO2 [Compound 368, 1-(Benzo[d][1,3]dioxol-5-yl)-4-(o-tolyl)butane-1,4-dione] | 16 nM
26 | O=C(CCC(=O)c1ncccn1)c1ccc2c(c1)OCO2 [Compound 372, 1-(Benzo[d][1,3]dioxol-5-yl)-4-(pyrimidin-2-yl)butane-1,4-dione] | 97 nM
27 | O=C(CCC(=O)c1cccs1)c1ccc2c(c1)OCO2 [Compound 374, 1-(Benzo[d][1,3]dioxol-5-yl)-4-(thiophen-2-yl)butane-1,4-dione] | 13 nM
28 | O=C(CCC(=O)c1ccco1)c1ccc2c(c1)OCO2 [Compound 375, 1-(Benzo[d][1,3]dioxol-5-yl)-4-(furan-2-yl)butane-1,4-dione] | 71 nM
29 | Cc1cccc(C(=O)CCC(=O)c2ccc3c(c2)OC(F)(F)O3)c1 [Compound 379, 1-(2,2-Difluorobenzo[d][1,3]dioxol-5-yl)-4-(m-tolyl)butane-1,4-dione] | > 10000 nM
30 | O=C(CCC(=O)c1ccco1)c1ccc2c(c1)OC(F)(F)O2 [Compound 385, 1-(2,2-Difluorobenzo[d][1,3]dioxol-5-yl)-4-(furan-2-yl)butane-1,4-dione] | 165 nM
31 | COc1ccc(C(=O)CCC(=O)c2cccc(C)c2)cc1OC [Compound 425, 1-(3,4-Dimethoxyphenyl)-4-(m-tolyl)butane-1,4-dione] | 5950 nM
32 | COc1ccc(C(=O)CCC(=O)c2ccc(C)cc2)cc1OC [Compound 426, 1-(3,4-Dimethoxyphenyl)-4-(p-tolyl)butane-1,4-dione] | 8800 nM
33 | COc1ccc(C(=O)CCC(=O)c2cncnc2)cc1OC [Compound 430, 1-(3,4-Dimethoxyphenyl)-4-(pyrimidin-5-yl)butane-1,4-dione] | > 10000 nM
34 | COc1ccc(C(=O)CCC(=O)c2ncccn2)cc1OC [Compound 431, 1-(3,4-Dimethoxyphenyl)-4-(pyrimidin-2-yl)butane-1,4-dione] | > 10000 nM
35 | COc1ccc(C(=O)CCC(=O)c2ccncn2)cc1OC [Compound 432, 1-(3,4-Dimethoxyphenyl)-4-(pyrimidin-4-yl)butane-1,4-dione] | 4800 nM
36 | COc1ccc(C(=O)CCC(=O)c2cccnn2)cc1OC [Compound 433, 1-(3,4-Dimethoxyphenyl)-4-(pyridazin-3-yl)butane-1,4-dione] | > 10000 nM
37 | O=C(CCC(=O)c1cccc2c1OCCO2)c1ccco1 [Compound 442, 1-(2,3-Dihydrobenzo[b][1,4]dioxin-5-yl)-4-(furan-2-yl)butane-1,4-dione] | 2150 nM
38 | Cc1ccccc1C(=O)CCC(=O)c1ccc2[nH]ccc2c1 [Compound 445, 1-(1H-indol-5-yl)-4-(o-tolyl)butane-1,4-dione] | 10 nM
39 | Cc1ccc(C(=O)CCC(=O)c2ccc3[nH]ccc3c2)cc1 [Compound 447, 1-(1H-Indol-5-yl)-4-(p-tolyl)butane-1,4-dione] | > 10000 nM
40 | O=C(CCC(=O)c1cccs1)c1ccc2[nH]ccc2c1 [Compound 451, 1-(1H-Indol-5-yl)-4-(thiophen-2-yl)butane-1,4-dione] | 37 nM
41 | Cc1ccccc1C(=O)CCC(=O)c1ccc2occc2c1 [Compound 455, 1-(Benzofuran-5-yl)-4-(o-tolyl)butane-1,4-dione] | 32 nM
42 | Cc1cccc(C(=O)CCC(=O)c2ccc3occc3c2)c1 [Compound 456, 1-(Benzofuran-5-yl)-4-(m-tolyl)butane-1,4-dione] | 673 nM
43 | Cc1ccc(C(=O)CCC(=O)c2ccc3occc3c2)cc1 [Compound 457, 1-(Benzofuran-5-yl)-4-(p-tolyl)butane-1,4-dione] | 2890 nM
44 | O=C(CCC(=O)c1ccco1)c1ccc2occc2c1 [Compound 462, 1-(Benzofuran-5-yl)-4-(furan-2-yl)butane-1,4-dione] | 424 nM
45 | Cc1ccccc1C(=O)CCC(=O)c1ccc2ocnc2c1 [Compound 485, 1-(Benzo[d]oxazol-5-yl)-4-(o-tolyl)butane-1,4-dione] | > 10000 nM
46 | O=C(CCC(=O)c1ccccc1F)c1ccc2[nH]ncc2c1 [Compound 495, 1-(2-Fluorophenyl)-4-(1H-indazol-5-yl)butane-1,4-dione] | 8 nM
47 | O=C(CCC(=O)c1ccc2[nH]ncc2c1)c1ccc(F)cc1 [Compound 497, 1-(4-Fluorophenyl)-4-(1H-indazol-5-yl)butane-1,4-dione] | 48 nM
48 | O=C(CCC(=O)c1ccccc1C(F)(F)F)c1ccc2[nH]ncc2c1 [Compound 498, 1-(1H-Indazol-5-yl)-4-(2-(trifluoromethyl)phenyl)butane-1,4-dione] | 12 nM
